Assay results published in US20240180803A1, “HYALURONIC ACID-PRODUCTION PROMOTER” (NISSIN FOODS HOLDINGS CO., LTD., priority 2021, published 2024).

System: normal human dermal fibroblasts (NHDF)
Assay: Production capacity evaluation test of hyaluronic acid in cultured cells
Format: cell-based
Conditions: for production capacity of hyaluronic acid with the NC taken as 100%: NHDF, 24 hours, culture supernatant; for Amount of hyaluronic acid produced obtained by subtracting NC / Measured value (amount of hyaluronic acid in the culture supernatant): NHDF culture supernatant; for Measured value (amount of hyaluronic acid in the culture supernatant): NC 942
Description: Reagents were first prepared. […] Next, preparation of cultured cells was performed. In Example, the preparation was performed with normal human dermal fibroblasts (NHDF). First, using Dulbecco's Modified Eagle Medium (DMEM, manufactured by Gibco) to which 10% heat-inactivated FBS (manufactured by Biowest) and penicillin-streptomycin (manufactured by Invitrogen) were added, NHDF was cultured under the conditions of 37° C., 5% CO2. NHDF cells were then seeded to a 24-well plate at 1.0×10^5 cells/well. Thereafter, the NHDF cells were cultured for 72 hours under the conditions mentioned above. After the cell culture, the culture supernatant was replaced with DMEM containing no FBS. […] Note that in cultured cells, the concentration is not related to an absorption rate, which is applied to oral intake. […] After the addition of the reagent or reagents, the cells were cultured for 24 hours under the conditions of 37° C., 5% CO2. The medium was recovered after culturing, and the concentration of the hyaluronic acid in the culture supernatant was measured using Hyaluronan DuoSet Kit (manufactured by R&D Systems). Note that the cell culture without reagent was set as a negative control (NC) in Example. […] Here, the cell culture without reagent was set as a negative control (NC), and the amount (ng/mL) of hyaluronic acid produced was determined by subtracting the amount of hyaluronic acid produced of the NC from the amount of hyaluronic acid produced of each compound with reagent.

SMILES | production capacity of hyaluronic acid with the NC taken as 100% (0.001 μM final concentration) [%] | production capacity of hyaluronic acid with the NC taken as 100% (0.01 μM final concentration) [%] | production capacity of hyaluronic acid with the NC taken as 100% (0.05 μM final concentration) [%] | production capacity of hyaluronic acid with the NC taken as 100% (0.1 μM final concentration) [%] | production capacity of hyaluronic acid with the NC taken as 100% (1 μM final concentration) [%] | promotion capacity of hyaluronic acid production (in words) (concentrations of 0.01 mM or less and of 1 mM) | Amount of hyaluronic acid produced obtained by subtracting NC (final concentration 1 mM) [ng/mL] | Measured value (amount of hyaluronic acid in the culture supernatant) (final concentration 1 mM) [ng/mL] | promotion of hyaluronic acid production (in words) (any concentration tested (0.001 to 1 mM)) | promotion capacity of hyaluronic acid production (in words) (concentrations from 0.01 to 0.05 mM) | amount of hyaluronic acid produced compared with substances having similar chemical structures (in words) (final concentration 1 mM)
CCCCCCCCCCCCCCCCCCCC(=O)O [Arachidic acid, arachidic acid] | 111 | 122 | 102 | 107 | 127 | high promotion capacity of production | – | – | – | – | –
O=c1c(-c2ccc(O)cc2)coc2cc(O)ccc12 [Daidzein, daidzein, reference compound] | – | – | – | – | – | – | 0 | 891 | – | – | –
O=C(/C=C/c1ccc(O)cc1)c1ccc(O)cc1O [Isoliquiritigenin, isoliquiritigenin] | – | 142 | 138 | – | 127 | – | 562.7006 | 1504 | promotion of hyaluronic acid production was confirmed | remarkably high promotion capacity of production | the highest
O=C1C[C@@H](c2ccc(O)cc2)Oc2cc(O)ccc21 [Liquiritigenin, liquiritigenin, reference compound] | – | – | – | – | – | – | 164.725 | 1106 | – | – | –
O=C(O)/C=C/c1ccc(O)cc1 [trans-p-coumaric Acid, Trans-p-coumaric acid, reference compound] | – | – | – | – | – | – | 275.4202 | 1217 | – | – | –
